These are literature values, as cited in patent US20240415846A1, “METHOD OF TREATING AMYOTROPHIC LATERAL SCLEROSIS AND DOSING REGIMEN FOR SAME” (Woolsey Pharmaceuticals, Inc., priority 2021, published 2024).

The conditions of this series: 1-hydroxy (M3) metabolite formed in vivo; Shibuya 2001; cited from earlier work.

For the compound `O=S(=O)(c1cccc2c(O)nccc12)N1CCCNCC1` [M3], the half-life result was “about 8 hours”.
